For 13 compounds, EC50 and CC50 results are on record in patent US10668064B2, “Polycyclic-carbamoylpyridone compounds and their pharmaceutical use” (Gilead Sciences, Inc., priority 2013, dated 2020).

The test system of series [1] is HIV-IIIb. As to the kind of experiment: Antiviral assay in MT4 cells. It counts as cell-based. Conditions: Human immunodeficiency virus 1, 120 h; MT4 cells infected with HIV-IIIb, 5 days incubation, CellTiter-Glo; average over time; read-out: EC50 nM in MT-4. The procedure:
(§1) For the antiviral assay utilizing MT4 cells, 0.4 μL of 189× test concentration of 3-fold serially diluted compound in DMSO was added to 40 μL of cell growth medium (RPMI 1640, 10% FBS, 1% penicillin/streptomycin, 1% L-Glutamine, 1% HEPES) in each well of 384-well assay plates (10 concentrations) in quadruplicate. 1 mL aliquots of 2×10^6 MT4 cells are pre-infected for 1 and 3 hours respectively at 37° C. with 25 μL (MT4) or of either cell growth medium (mock-infected) or a fresh 1:250 dilution of an HIV-IIIb concentrated ABI stock (0.004 m.o.i. for MT4 cells). Infected and uninfected cells are diluted in cell growth medium and 35 μL of 2000 (for MT4) cells is added to each well of the assay plates. Assay plates were then incubated in a 37° C. incubator. After 5 days of incubation, 25 μL of 2× concentrated CellTiter-Glo™ Reagent (catalog # G7573, Promega Biosciences, Inc., Madison, Wis.) was added to each well of the assay plate. Cell lysis was carried out by incubating at room temperature for 2-3 minutes, and then chemiluminescence was read using the Envision reader (PerkinElmer).

Series [2] is described as follows: in vitro. It counts as cell-based. Particulars: human. The procedure:
as §1

Turning to `O=C(N[C@@H](c1ccc(F)cc1F)C(F)(F)F)c1cn2c(c(O)c1=O)C(=O)N1[C@@H]3C[C@H](O[C@@H]1C2)[C@H]1C[C@H]13` [Compound 1, (1aS,2S,3aR,12R,12aR)-N-((S)-1-(2,4-difluorophenyl)-2,2,2-trifluoroethyl)-9-hydroxy-8,10-dioxo-1a,2,3a,4,8,10,12,12a-octahydro-1H-2,12-methanocyclopropa[e]pyrido[1′,2′:4,5]pyrazino[2,1-b][1,3]oxazepine-7-carboxamide], the EC50 in series [1] worked out at 9.6 nM. Also, the midpoint of cytotoxicity in series [2], the CC50 at 5 days, lay at 14100 nM.

Consider `O=C(N[C@@H](c1ccc(F)cc1F)C(F)(F)F)c1cn2c(c(O)c1=O)C(=O)N1[C@H](C2)O[C@@H]2C[C@H]1[C@H]1C[C@H]12` [Compound 2, (1aR,2R,3aS,12S,12aS)-N-((S)-1-(2,4-difluorophenyl)-2,2,2-trifluoroethyl)-9-hydroxy-8,10-dioxo-1a,2,3a,4,8,10,12,12a-octahydro-1H-2,12-methanocyclopropa[e]pyrido[1′,2′:4,5]pyrazino[2,1-b][1,3]oxazepine-7-carboxamide], for which, in series [1], the EC50 amounted to 10.7 nM. Moreover, the CC50 at 5 days in series [2] stood at 7800 nM.

On to `C[C@@H](NC(=O)c1cn2c(c(O)c1=O)C(=O)N1[C@@H]3C[C@H](O[C@@H]1C2)[C@H]1C[C@H]13)c1ccc(F)cc1F` [Compound 3, (1aS,2S,3aR,12R,12aR)-N-((R)-1-(2,4-difluorophenyl)ethyl)-9-hydroxy-8,10-dioxo-1a,2,3a,4,8,10,12,12a-octahydro-1H-2,12-methanocyclopropa[e]pyrido[1′,2′:4,5]pyrazino[2,1-b][1,3]oxazepine-7-carboxamide], for which, in series [1], the EC50 stood at 9.9 nM. Besides, it took 4100 nM to reach half-maximal cytotoxicity in series [2] (CC50 at 5 days).

In the case of `C[C@@H](NC(=O)c1cn2c(c(O)c1=O)C(=O)N1C3CC(O[C@H]1C2)[C@@H]1C[C@H]31)c1ccc(F)cc1F` (some centres unmarked) [Compound 4], the EC50 in series [1] worked out at 8.4 nM. This compound yielded a CC50 at 5 days in series [2] of 12800 nM.

With `O=C(NCc1ccc(F)cc1F)c1cn2c(c(O)c1=O)C(=O)N1C(C2)O[C@@H]2C[C@H]1[C@@H]1[C@H]2C1(F)F` (stereo partly drawn) [Compound 5, (1aR,2R,12S,12a5)-N-(2,4-difluorobenzyl)-1,1-difluoro-9-hydroxy-8,10-dioxo-1a,2,3a,4,8,10,12,12a-octahydro-1H-2,12-methanocyclopropa[e]pyrido[1′,2′:4,5]pyrazino[2,1-b][1,3]oxazepine-7-carboxamide], the EC50 in series [1] was found to be 1.6 nM. This compound had a CC50 at 5 days in series [2] of 50500 nM.

For `O=C(NCc1ccc(F)cc1F)c1cn2c(c(O)c1=O)C(=O)N1C(C2)O[C@@H]2C[C@H]1[C@H]1C[C@H]12` (stereo partly drawn) [Compound 6, (1aR,2R,3aS,12S,12a5)-N-(2,4-difluorobenzyl)-9-hydroxy-8,10-dioxo-1a,2,3a,4,8,10,12,12a-octahydro-1H-2,12-methanocyclopropa[e]pyrido[1′,2′:4,5]pyrazino[2,1-b][1,3]oxazepine-7-carboxamide], the EC50 in series [1] is 1.5 nM. This compound also had a CC50 at 5 days in series [2] of 14100 nM.

Regarding `O=C(NCc1ccc(F)cc1F)c1cn2c(c(O)c1=O)C(=O)N1[C@@H]3C[C@H](O[C@@H]1C2)[C@H]1C[C@H]13` [Compound 7, (1aS,2S,3aR,12R,12aR)-N-(2,4-difluorobenzyl)-9-hydroxy-8,10-dioxo-1a,2,3a,4,8,10,12,12a-octahydro-1H-2,12-methanocyclopropa[e]pyrido[1′,2′:4,5]pyrazino[2,1-b][1,3]oxazepine-7-carboxamide], the EC50 in series [1] came to 2.7 nM. This compound had a CC50 at 5 days in series [2] of 4830 nM.

For the compound `O=C(NCc1ccc(F)cc1F)c1cn2c(c(O)c1=O)C(=O)N1[C@H](C2)[C@@H]2C[C@H]1[C@H]1C[C@@H]21` [Compound 8, (1aS,2S,10aS,11R,11aR)-N-(2,4-difluorobenzyl)-5-hydroxy-4,6-dioxo-1a,2,4,6,10,10a,11,11a-octahydro-1H-2,11-methanocyclopropa[4,5]pyrido[1,2-a]pyrido[1,2-d]pyrazine-7-carboxamide], the EC50 in series [1] worked out at 1.4 nM. In series [2], this compound gave a CC50 at 5 days of 8840 nM.

Take `O=C(NCc1c(F)cc(F)cc1F)c1cn2c(c(O)c1=O)C(=O)N1[C@H](C2)[C@@H]2C[C@H]1[C@H]1C[C@@H]21` [Compound 9, (1aS,2S,10aS,11R,11aR)-5-hydroxy-4,6-dioxo-N-(2,4,6-trifluorobenzyl)-1a,2,4,6,10,10a,11,11a-octahydro-1H-2,11-methanocyclopropa[4,5]pyrido[1,2-a]pyrido[1,2-d]pyrazine-7-carboxamide]: the EC50 in series [1] was 1.4 nM. The compound also yielded a CC50 at 5 days in series [2] of 10700 nM.

Turning to `O=C(NCc1c(F)cc(F)cc1F)c1cn2c(c(O)c1=O)C(=O)N1[C@@H]3C[C@H](O[C@@H]1C2)[C@H]1C[C@H]13` [Compound 10, (1aS,2S,3aR,12R,12aR)-9-hydroxy-8,10-dioxo-N-(2,4,6-trifluorobenzyl)-1a,2,3a,4,8,10,12,12a-octahydro-1H-2,12-methanocyclopropa[e]pyrido[1′,2′:4,5]pyrazino[2,1-b][1,3]oxazepine-7-carboxamide], the EC50 in series [1] was determined as 1.7 nM. The same compound yielded a CC50 at 5 days in series [2] of 7590 nM.

In the case of `O=C(NCc1c(F)cc(F)cc1F)c1cn2c(c(O)c1=O)C(=O)N1C(C2)O[C@@H]2C[C@H]1[C@H]1C[C@H]12` (stereo partly drawn) [Compound 11, (1aR,2R,10aR,11S,11a5)-5-hydroxy-4,6-dioxo-N-(2,4,6-trifluorobenzyl)-1a,2,4,6,10,10a,11,11a-octahydro-1H-2,11-methanocyclopropa[4,5]pyrido[1,2-a]pyrido[1,2-d]pyrazine-7-carboxamide], the EC50 in series [1] was found to be 1.5 nM. The midpoint of cytotoxicity in series [2], the CC50 at 5 days, lay at 11000 nM.

With `O=C(NCc1c(F)cc(F)cc1F)c1cn2c(c(O)c1=O)C(=O)N1[C@@H]3C[C@@H]([C@H]4C[C@H]43)[C@@H]1C2` [Compound 12, (1aR,2R,10aR,11S,11aS)-5-hydroxy-4,6-dioxo-N-(2,4,6-trifluorobenzyl)-1a,2,4,6,10,10a,11,11a-octahydro-1H-2,11-methanocyclopropa[4,5]pyrido[1,2-a]pyrido[1,2-d]pyrazine-7-carboxamide], in series [1], the EC50 was found to be 2.9 nM. Moreover, the CC50 at 5 days in series [2] was 22800 nM.

In the case of `O=C(NCc1cc(F)c(F)cc1F)c1cn2c(c(O)c1=O)C(=O)N1C3CC([C@@H]4C[C@H]34)[C@@H]1C2` (stereo partly drawn) [Compound 13, (1aR,2R,10aR,11S,11a5)-5-hydroxy-4,6-dioxo-N-(2,4,5-trifluorobenzyl)-1a,2,4,6,10,10a,11,11a-octahydro-1H-2,11-methanocyclopropa[4,5]pyrido[1,2-a]pyrido[1,2-d]pyrazine-7-carboxamide], the EC50 in series [1] amounted to 2.3 nM. This compound registered a CC50 at 5 days in series [2] of 7050 nM.
